Structures are written as SMILES. Where “and” joins values, the source holds several entries; their conditions need not be identical. Equal entries are not always repeated.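 Assay format: 96-well plates, 48-hour exposure. GI50 marks 50% less growth. TGI denotes the concentration required for complete inhibition of growth.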

One test concerns SF-539 CNS. As to the kind of experiment: NCI anticancer screen, dose series, 48 h.
Take `CCc1c(Oc2ccc(C(C)=O)cc2)c2ccccc2[nH]c1=O`: the GI50 is 15700 nM and the TGI is 38.6 µM.

With `Cc1nc2cccc([N+](=O)[O-])c2c(NCCCN(C)C)c1C`, the TGI was above 100 µM.

For `Cn1c(N2NC(=O)C(N=Nc3ccc(S(N)(=O)=O)cc3)C2=O)nc(-c2ccco2)c(C#N)c1=O` (centres undefined), the GI50 is above 50000 nM and the TGI is above 50 µM.

With `NCC(=O)NS(=O)(=O)OC[C@H]1O[C@@H](n2cnc3c(N)ncnc32)[C@H](O)[C@@H]1O`, the GI50 is 1430 nM and the TGI turned out to be 3.58 µM.

Consider `Cc1c(C(=O)N/N=C/c2ccc(Cl)cc2)nnn1-c1ccnc2c(C(F)(F)F)cccc12`, for which the GI50 was 12600 nM and the TGI was determined as 25.8 µM.

Consider `Cc1nn(CN2CCN(C)CC2)c(=S)n1/N=C/c1cccc2ccccc12`, for which the GI50 was 18300 nM and the TGI turned out to be 34.7 µM.

For `N#C/C(=C1C=C/C(=N/O)C(Br)=C/1)c1ccccc1`, the GI50 was 1090 nM and the TGI amounted to 2.75 µM.

Take `CN(C)CCNc1cc(-c2ccccc2)nc2ccccc12`: the GI50 is 8220 nM and the TGI was 22.7 µM.

Consider `COc1cccc(/C=N/NC(=O)c2ccccc2Nc2ccnc(C(F)(F)F)c2)c1O`, for which the GI50 is 583 nM and the TGI was 11.3 µM.

Consider `Cc1ccc(CS/C(=C\c2ccc([N+](=O)[O-])cc2)C(=O)c2ccc(F)cc2)cc1`, for which the GI50 was 3220 nM and the TGI turned out to be 10.8 µM.

Consider `CC[CH2][Pb]([CH2]CC)([CH2]CC)[O]C(=O)C(F)(F)F`, for which the GI50 is 156 nM and the TGI was found to be 0.424 µM.

For the compound `CN1CCN(Cc2ccc(NC(=O)c3cncc(C#Cc4cnc(N)c5ccc(C#N)cc45)c3)cc2C(F)(F)F)CC1`, the GI50 was 101 nM and the TGI came out at 0.598 µM.

On to `CCOC(=O)CCc1cc(=O)oc2cc(O)cc(O)c12`, for which the TGI is above 100 µM.

Compound `O=C(O)Cn1ccc(=O)c2ccc([N+](=O)[O-])cc21` had a TGI above 100 µM.

As for `O=C(CI)NC1Oc2ccccc2-c2oc(=O)c(-c3ccccc3)cc21` (centres undefined), the GI50 is 1730 nM and the TGI was determined as 3.13 µM.

As for `COc1ccc2c(c1)c(-c1nc(-c3cn(C)c4ncccc34)cs1)cn2CCCN1CCCCC1`, the GI50 was 1750 nM and the TGI was determined as 3.22 µM.

Turning to `COc1cccc(-c2cc(=O)c3cc(N(C)C)ccc3[nH]2)c1`, the GI50 is 10.6 nM and 3.32 nM; the TGI is 0.0351 µM and 0.022 µM and 0.0128 µM.

On to `CC1=C(CCCNS(C)(=O)=O)C2=C(C)C3(CC3)[C@@](C)(O)C(=O)C2=C1`, for which the GI50 was 969 nM and the TGI is 3.26 µM.

For the compound `Cc1ccc(-c2c3c([nH]c(=O)c2C#N)-c2cc(F)ccc2OC3)cc1`, the GI50 is above 100000 nM and the TGI is above 100 µM.

Another test concerns TK-10 renal. Put plainly: NCI anticancer screen, dose series, 48 h.
Consider `CCc1c(Oc2ccc(C(C)=O)cc2)c2ccccc2[nH]c1=O`, for which the GI50 was 7030 nM and the TGI was determined as 28.6 µM.

The compound `Cc1nc2cccc([N+](=O)[O-])c2c(NCCCN(C)C)c1C` gave a TGI above 55.1 µM.

Consider `Cn1c(N2NC(=O)C(N=Nc3ccc(S(N)(=O)=O)cc3)C2=O)nc(-c2ccco2)c(C#N)c1=O` (centres undefined), for which the GI50 is 8640 nM and the TGI amounted to 33.5 µM.

Consider `NCC(=O)NS(=O)(=O)OC[C@H]1O[C@@H](n2cnc3c(N)ncnc32)[C@H](O)[C@@H]1O`, for which the GI50 was 2750 nM and the TGI amounted to 5.78 µM.

In the case of `Cc1c(C(=O)N/N=C/c2ccc(Cl)cc2)nnn1-c1ccnc2c(C(F)(F)F)cccc12`, the GI50 was 2600 nM and the TGI was found to be 8.93 µM.

Turning to `Cc1nn(CN2CCN(C)CC2)c(=S)n1/N=C/c1cccc2ccccc12`, the GI50 is 20500 nM and the TGI came to 50.1 µM.

In the case of `N#C/C(=C1C=C/C(=N/O)C(Br)=C/1)c1ccccc1`, the GI50 was 5020 nM and the TGI was found to be 16.5 µM.

On to `CN(C)CCNc1cc(-c2ccccc2)nc2ccccc12`, for which the GI50 was 6940 nM and the TGI stood at 38.8 µM.

With `COc1cccc(/C=N/NC(=O)c2ccccc2Nc2ccnc(C(F)(F)F)c2)c1O`, the GI50 is 392 nM and the TGI is above 92.6 µM.

Consider `Cc1ccc(CS/C(=C\c2ccc([N+](=O)[O-])cc2)C(=O)c2ccc(F)cc2)cc1`, for which the GI50 is 15100 nM and the TGI came out at 32.2 µM.

On to `CC[CH2][Pb]([CH2]CC)([CH2]CC)[O]C(=O)C(F)(F)F`, for which the GI50 was 204 nM and the TGI is 0.533 µM.

`CN1CCN(Cc2ccc(NC(=O)c3cncc(C#Cc4cnc(N)c5ccc(C#N)cc45)c3)cc2C(F)(F)F)CC1`: the GI50 was 210 nM and the TGI was 1.47 µM.

`CCOC(=O)CCc1cc(=O)oc2cc(O)cc(O)c12` gave a TGI above 100 µM.

`O=C(O)Cn1ccc(=O)c2ccc([N+](=O)[O-])cc21`: the TGI is above 100 µM.

In the case of `COc1cnc2cc(C(=O)O)c3c([N+](=O)[O-])cccc3c2c1`, the TGI is above 100 µM.

For `O=C(CI)NC1Oc2ccccc2-c2oc(=O)c(-c3ccccc3)cc21` (centres undefined), the GI50 is 1710 nM and the TGI was 3.13 µM.

On to `COc1ccc2c(c1)c(-c1nc(-c3cn(C)c4ncccc34)cs1)cn2CCCN1CCCCC1`, for which the GI50 is 1640 nM and the TGI amounted to 3.1 µM.

For `O=C1c2cccc(NCCN=Cc3cc(O)ccc3O)c2C(=O)c2c(NCCN=Cc3cc(O)ccc3O)cccc21`, the GI50 was 2210 nM and the TGI stood at 5.8 µM.

In the case of `COc1cccc(-c2cc(=O)c3cc(N(C)C)ccc3[nH]2)c1`, the TGI is 65 µM and 34.2 µM.

For the compound `CC1=C(CCCNS(C)(=O)=O)C2=C(C)C3(CC3)[C@@](C)(O)C(=O)C2=C1`, the GI50 is 2610 nM and the TGI is 8.52 µM.

`COc1cc(/C=C/c2cc(/C=C/c3ccc(O)c(OC)c3)n(-c3ccccc3)n2)ccc1O`: the GI50 is 563 nM and the TGI was 1.99 µM.

In the case of `Cc1ccc(-c2c3c([nH]c(=O)c2C#N)-c2cc(F)ccc2OC3)cc1`, the GI50 is 29400 nM and the TGI is 80.9 µM.

A further test has as its system LOX IMVI melanoma. As to the kind of experiment: NCI anticancer screen, dose series, 48 h.
With `CCc1c(Oc2ccc(C(C)=O)cc2)c2ccccc2[nH]c1=O`, the GI50 is 17300 nM and the TGI was found to be 46.2 µM.

`Cc1nc2cccc([N+](=O)[O-])c2c(NCCCN(C)C)c1C` gave a TGI above 100 µM.

Turning to `Cn1c(N2NC(=O)C(N=Nc3ccc(S(N)(=O)=O)cc3)C2=O)nc(-c2ccco2)c(C#N)c1=O` (centres undefined), the GI50 was 8080 nM and the TGI was determined as 18.7 µM.

With `NCC(=O)NS(=O)(=O)OC[C@H]1O[C@@H](n2cnc3c(N)ncnc32)[C@H](O)[C@@H]1O`, the GI50 was 1680 nM and the TGI amounted to 3.52 µM.

`Cc1c(C(=O)N/N=C/c2ccc(Cl)cc2)nnn1-c1ccnc2c(C(F)(F)F)cccc12`: the GI50 is 1690 nM and the TGI turned out to be 3.18 µM.

On to `Cc1nn(CN2CCN(C)CC2)c(=S)n1/N=C/c1cccc2ccccc12`, for which the GI50 is 17600 nM and the TGI was determined as 31.4 µM.

For `N#C/C(=C1C=C/C(=N/O)C(Br)=C/1)c1ccccc1`, the GI50 was 521 nM and the TGI was 2.9 µM.

With `CN(C)CCNc1cc(-c2ccccc2)nc2ccccc12`, the GI50 is 3600 nM and the TGI is 14.4 µM.

As to `COc1cccc(/C=N/NC(=O)c2ccccc2Nc2ccnc(C(F)(F)F)c2)c1O`, the GI50 is 264 nM and the TGI is above 100 µM.

With `Cc1ccc(CS/C(=C\c2ccc([N+](=O)[O-])cc2)C(=O)c2ccc(F)cc2)cc1`, the GI50 was 1640 nM and the TGI was 3 µM.

Regarding `CC[CH2][Pb]([CH2]CC)([CH2]CC)[O]C(=O)C(F)(F)F`, the GI50 is 89.1 nM and the TGI amounted to 0.255 µM.

Turning to `CN1CCN(Cc2ccc(NC(=O)c3cncc(C#Cc4cnc(N)c5ccc(C#N)cc45)c3)cc2C(F)(F)F)CC1`, the GI50 is 20.3 nM and the TGI worked out at 0.546 µM.

On to `CCOC(=O)CCc1cc(=O)oc2cc(O)cc(O)c12`, for which the TGI was above 100 µM.

The compound `COc1cnc2cc(C(=O)O)c3c([N+](=O)[O-])cccc3c2c1` showed a TGI above 100 µM.

`O=C(CI)NC1Oc2ccccc2-c2oc(=O)c(-c3ccccc3)cc21` (centres undefined): the GI50 is 307 nM and the TGI is 1.07 µM.

Take `COc1ccc2c(c1)c(-c1nc(-c3cn(C)c4ncccc34)cs1)cn2CCCN1CCCCC1`: the GI50 was 1650 nM and the TGI was found to be 3.09 µM.

In the case of `O=C1c2cccc(NCCN=Cc3cc(O)ccc3O)c2C(=O)c2c(NCCN=Cc3cc(O)ccc3O)cccc21`, the GI50 was 762 nM and the TGI stood at 2.25 µM.

As for `COc1cccc(-c2cc(=O)c3cc(N(C)C)ccc3[nH]2)c1`, the GI50 was 35.4 nM and 12 nM.

For `CC1=C(CCCNS(C)(=O)=O)C2=C(C)C3(CC3)[C@@](C)(O)C(=O)C2=C1`, the GI50 was 1800 nM and the TGI is 6.34 µM.

For `Cc1ccc(-c2c3c([nH]c(=O)c2C#N)-c2cc(F)ccc2OC3)cc1`, the GI50 was above 100000 nM and the TGI is above 100 µM.

The test system of another test is HCT-116 colon. Put plainly: NCI anticancer screen, dose series, 48 h.
Regarding `CCc1c(Oc2ccc(C(C)=O)cc2)c2ccccc2[nH]c1=O`, the GI50 was 18500 nM and the TGI is 52.8 µM.

Consider `Cc1nc2cccc([N+](=O)[O-])c2c(NCCCN(C)C)c1C`, for which the TGI came out at 59 µM.

For the compound `Cn1c(N2NC(=O)C(N=Nc3ccc(S(N)(=O)=O)cc3)C2=O)nc(-c2ccco2)c(C#N)c1=O` (centres undefined), the GI50 is 15400 nM and the TGI was above 50 µM.

With `NCC(=O)NS(=O)(=O)OC[C@H]1O[C@@H](n2cnc3c(N)ncnc32)[C@H](O)[C@@H]1O`, the GI50 is 3140 nM and the TGI worked out at 9.19 µM.

On to `Cc1c(C(=O)N/N=C/c2ccc(Cl)cc2)nnn1-c1ccnc2c(C(F)(F)F)cccc12`, for which the GI50 is 2310 nM and the TGI was found to be 5.42 µM.

On to `Cc1nn(CN2CCN(C)CC2)c(=S)n1/N=C/c1cccc2ccccc12`, for which the GI50 was 18000 nM and the TGI came to 35.6 µM.

For `N#C/C(=C1C=C/C(=N/O)C(Br)=C/1)c1ccccc1`, the GI50 is 362 nM and the TGI stood at 2.13 µM.

As for `CN(C)CCNc1cc(-c2ccccc2)nc2ccccc12`, the GI50 is 3750 nM and the TGI is 18.8 µM.

For `COc1cccc(/C=N/NC(=O)c2ccccc2Nc2ccnc(C(F)(F)F)c2)c1O`, the GI50 was 311 nM and the TGI was above 67.2 µM.

As for `CC[CH2][Pb]([CH2]CC)([CH2]CC)[O]C(=O)C(F)(F)F`, the GI50 is 79.8 nM and the TGI is 0.262 µM.

As for `CN1CCN(Cc2ccc(NC(=O)c3cncc(C#Cc4cnc(N)c5ccc(C#N)cc45)c3)cc2C(F)(F)F)CC1`, the GI50 is 25.4 nM and the TGI stood at 0.672 µM.

In the case of `CCOC(=O)CCc1cc(=O)oc2cc(O)cc(O)c12`, the TGI is above 100 µM.

The compound `O=C(O)Cn1ccc(=O)c2ccc([N+](=O)[O-])cc21` showed a TGI above 100 µM.

`COc1cnc2cc(C(=O)O)c3c([N+](=O)[O-])cccc3c2c1` registered a TGI above 100 µM.

On to `COc1ccc2c(c1)c(-c1nc(-c3cn(C)c4ncccc34)cs1)cn2CCCN1CCCCC1`, for which the GI50 was 1680 nM and the TGI was 3.05 µM.

In the case of `COc1cccc(-c2cc(=O)c3cc(N(C)C)ccc3[nH]2)c1`, the GI50 was 15.5 nM and 4.33 nM.

On to `CC1=C(CCCNS(C)(=O)=O)C2=C(C)C3(CC3)[C@@](C)(O)C(=O)C2=C1`, for which the GI50 is 863 nM and the TGI was above 100 µM.

Values taken from PubChem BioAssay (NCI).
